Experimental data reported in patent publication US20080031903A1, “METHOD OF TREATING OCULAR INFECTIONS” (priority 2006, published 2008).
Several values for one entry are separate records, joined by “and”; a condition that tells them apart may be missing. Equal values may be shown once. Entries after “also recorded” stand apart in the source; their conditions may differ.

Tested on: Ad5
Assay: Ad5/NZW rabbit ocular model, Example 5 (IG-Ad-R3)
Type: in vivo
Experimental: Additional experiments were conducted substantially as described in Example 3, in order to determine the antiviral efficacy of a 100 mg/ml solution of IG (intravenous Immune Globulin) in the Ad5/NZW rabbit ocular model.

[1] = Days 1-5, Early Phase of Infection
[2] = Days 7-14, Late Phase of Infection

**Q.** What does the source list for Nc1ccn(C[C@@H](CO)OCP(=O)(O)O)c(=O)n1 [0.5% Cidofovir, Cidofovir]?
**A.** Ad5 ocular viral titer, individual eye (D 0, before treatment): 1050 pfu/ml and 50 pfu/ml and 1350 pfu/ml and 1200 pfu/ml and 30 pfu/ml and 6300 pfu/ml and 20 pfu/ml and 600 pfu/ml and 750 pfu/ml and 140 pfu/ml; Ad5 ocular viral titer, individual eye (D 1): 35 pfu/ml and 10 pfu/ml and 550 pfu/ml and 5 pfu/ml and 500 pfu/ml and 60 pfu/ml and 200 pfu/ml and 700 pfu/ml (2×) and 400 pfu/ml; Ad5 ocular viral titer, individual eye (D 3): 1500 pfu/ml and 5 pfu/ml and 2900 pfu/ml (2×) and 105 pfu/ml and 2600 pfu/ml and 1350 pfu/ml and 1600 pfu/ml and 4500 pfu/ml and 3500 pfu/ml; Ad5 ocular viral titer, individual eye (D 4): 0 pfu/ml (2×) and 5 pfu/ml and 750 pfu/ml and 1100 pfu/ml and 400 pfu/ml and 1150 pfu/ml and 7100 pfu/ml and 2000 pfu/ml and 1900 pfu/ml; Ad5 ocular viral titer, individual eye (D 5): 15 pfu/ml and 0 pfu/ml (2×) and 750 pfu/ml and 5 pfu/ml and 1400 pfu/ml and 700 pfu/ml and 600 pfu/ml and 850 pfu/ml and 950 pfu/ml; Ad5 ocular viral titer, individual eye (D 7): 0 pfu/ml (6×) and 25 pfu/ml and 5 pfu/ml (2×) and 10 pfu/ml; Ad5 ocular viral titer, individual eye (D 9): 0 pfu/ml; Ad5 ocular viral titer, individual eye (D 11): 0 pfu/ml; Ad5 ocular viral titer, individual eye (D 14): 0 pfu/ml; Positive Cultures per Total (Day 0, before treatment): 10/10; Positive Cultures per Total, percent (Day 0, before treatment): 100%; Positive Cultures per Total (Day 1): 10/10; Positive Cultures per Total, percent (Day 1): 100%; Positive Cultures per Total (Day 3): 10/10; Positive Cultures per Total, percent (Day 3): 100%; Positive Cultures per Total (Day 4): 8/10; Positive Cultures per Total, percent (Day 4): 80%; Positive Cultures per Total (Day 5): 8/10; Positive Cultures per Total, percent (Day 5): 80%; Positive Cultures per Total (Day 7): 4/10; Positive Cultures per Total, percent (Day 7): 40% and 80%; Positive Cultures per Total (Day 9): 0/10; Positive Cultures per Total, percent (Day 9): 0%; Positive Cultures per Total (Day 11): 0/10; Positive Cultures per Total, percent (Day 11): 0%; Positive Cultures per Total (Day 14): 0/10; Positive Cultures per Total, percent (Day 14): 0%; Positive Cultures per Total, Total [1]: 36/40; Positive Cultures per Total, Total (%) [1]: 90%; Positive Cultures per Total, Total (Days 1-14): 40/80; Positive Cultures per Total, Total (%) (Days 1-14): 50%; Positive Cultures per Total, Total [2]: 4/40; Positive Cultures per Total, Total (%) [2]: 10%; Mean Combined Ocular Titers Days 1-5, comparison (Early Phase): significantly lower Mean Combined Ocular Titers Days 1-5 compared with the saline Control; Mean Combined Ocular Titers Days 7-14, comparison (Late Phase): significantly lower Mean Combined Ocular Titers Days 7-14 compared with the saline Control; Positive Cultures per Total Days 7-14, comparison (Late Phase): significantly fewer Positive Cultures per Total Days 7-14 compared with 10% IG and the saline Control; Mean Daily Ocular Titers, comparison (days as stated): significantly lower titer on Day 7 compared the saline Control; Antiviral efficacy, conclusion (rabbit, in vivo): demonstrated its proven antiviral efficacy; Mean Duration of Shedding, comparison (rabbit, in vivo): significantly shorter mean durations of shedding compared with the saline Control; also recorded: significantly shorter mean duration of shedding compared with 10% IG; Positive Cultures per Total Days 1-14, comparison (rabbit, in vivo): significantly fewer Positive Cultures per Total Days 1-14 compared with the saline Control
